Results taken from ChEMBL document CHEMBL1149295, “A combined QM/MM approach to protein--ligand interactions: polarization effects of the HIV-1 protease on selected high affinity inhibitors” (J Med Chem, 2004).

Assay: Inhibition of HIV1 protease
Parameters: species or system Human immunodeficiency virus 1

Structure (SMILES)	Ki [nM]
Cc1c(O)cccc1C(=O)N[C@@H](CSc1ccccc1)[C@H](O)CN1C[C@H]2CCCC[C@H]2C[C@H]1C(=O)NC(C)(C)C [NELFINAVIR]	0.28
Nc1cccc(CN2C(=O)N(Cc3cccc(N)c3)[C@H](Cc3ccccc3)[C@H](O)[C@@H](O)[C@H]2Cc2ccccc2)c1 [MOZENAVIR]	0.41
CCC[C@@]1(CCc2ccccc2)CC(O)=C([C@H](CC)c2cccc(NS(=O)(=O)c3ccc(C(F)(F)F)cn3)c2)C(=O)O1 [TIPRANAVIR]	0.008
